Data as given in patent US20060069132A1, “Azolecarboxamide herbicides” (priority 2004, published 2006).

Key:
Experiment in all cases: Test C pre-/postemergence herbicide test
bermudagrass = type: in vivo, Cynodon dactylon
Outline: (§1)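 Greenhouse-grown plants were evaluated visually 12 to 14 days after treatment, with 100 meaning complete control and 0 no effect. Application was preemergence, or postemergence at 2 to 18 cm.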

Surinam grass = type: in vivo, Urochloa decumbens
Outline: as §1

cocklebur = type: in vivo, Xanthium strumarium
Outline: as §1

corn = type: in vivo, Zea mays
Outline: as §1

large crabgrass = type: in vivo, Digitaria sanguinalis
Outline: as §1

giant foxtail = type: in vivo, Setaria faberi
Outline: as §1

goosegrass = type: in vivo, Eleusine indica
Outline: as §1

kochia = type: in vivo, Kochia scoparia
Outline: as §1

[1] = system: common (oilseed) sunflower; type: in vivo, Helianthus annuus
Outline: as §1

[2] = 125 g ai/ha, scale 0 (no effect) to 100 (complete control), visual, 12 to 14 days, preemergence
[3] = 250 g ai/ha, scale 0 to 100 (0 no effect, 100 complete control), visual, 12 to 14 days, preemergence
[4] = Preemergence, 500 g ai/ha, scale 0 to 100, 0 no effect, 100 complete control

Structure (SMILES): CCNC(=O)c1ccc(F)c(NC(=O)C2CN(C(C)(C)C)N=C2CC)c1 (stereo not drawn) [Compound 336, 1-(1,1-dimethylethyl)-3-ethyl-N-[5-[(ethylamino)carbonyl]-2-fluorophenyl]-4,5-dihydro-1H-pyrazole-4-carboxamide]
- pest or weed control at 62 g/ha (bermudagrass; Cynodon dactylon, pre-emergence, 312 h, 62 g ai/ha, preemergence, scale 0 to 100, 0 no effect, 100 complete control, read-out: Plant response rating, Bermudagrass): 95%
- pest or weed control at 125 g/ha (bermudagrass; Cynodon dactylon, pre-emergence, 312 h, 125 g ai/ha, scale 0 (no effect) to 100 (complete control), visual, 12 to 14 days, read-out: Plant response rating, Bermudagrass): 100%
- pest or weed control at 250 g/ha (bermudagrass; Cynodon dactylon, pre-emergence, 312 h, 250 g ai/ha, scale 0-100, read-out: Plant response rating, Bermudagrass): 100%
- pest or weed control at 500 g/ha (bermudagrass; Cynodon dactylon, pre-emergence, 312 h, 500 g ai/ha, scale 0 to 100 (0 no effect, 100 complete control), visual, 12 to 14 days, read-out: Plant response rating, Bermudagrass): 100%
- pest or weed control at 62 g/ha (Surinam grass; Urochloa decumbens, pre-emergence, 312 h, 62 g ai/ha, preemergence, scale 0 to 100, read-out: Plant response rating, Surinam Grass): 50%
- pest or weed control at 250 g/ha (Surinam grass; Urochloa decumbens, pre-emergence, 312 h, 250 g ai/ha, scale 0-100, read-out: Plant response rating, Surinam Grass): 100%
- pest or weed control at 500 g/ha (Surinam grass; Urochloa decumbens, pre-emergence, 312 h, 500 g ai/ha, scale 0 to 100 (0 no effect, 100 complete control), visual, 12 to 14 days, read-out: Plant response rating, Surinam Grass): 100%
- pest or weed control at 62 g/ha (cocklebur; Xanthium strumarium, pre-emergence, 312 h, 62 g ai/ha, preemergence, scale 0 to 100, read-out: Plant response rating, Cocklebur): 0%
- pest or weed control at 125 g/ha (cocklebur; Xanthium strumarium, pre-emergence, 312 h, 125 g ai/ha, scale 0 (no effect) to 100 (complete control), visual, 12 to 14 days, read-out: Plant response rating, Cocklebur): 5%
- pest or weed control at 250 g/ha (cocklebur; Xanthium strumarium, pre-emergence, 312 h, 250 g ai/ha, scale 0-100, read-out: Plant response rating, Cocklebur): 30%
- pest or weed control at 500 g/ha (cocklebur; Xanthium strumarium, pre-emergence, 312 h, 500 g ai/ha, scale 0 to 100 (0 no effect, 100 complete control), visual, 12 to 14 days, read-out: Plant response rating, Cocklebur): 50%
- Corn plant response rating (crop injury, 0 = no effect, 100 = complete kill) at 62 g/ha (corn; Zea mays, pre-emergence, 312 h, 62 g ai/ha, preemergence, scale 0 to 100): 10%
- Corn plant response rating (crop injury, 0 = no effect, 100 = complete kill) at 125 g/ha (corn; Zea mays, pre-emergence, 312 h, 125 g ai/ha, scale 0 (no effect) to 100 (complete control), visual, 12 to 14 days): 35%
- Corn plant response rating (crop injury, 0 = no effect, 100 = complete kill) at 250 g/ha (corn; Zea mays, pre-emergence, 312 h, 250 g ai/ha, scale 0-100): 85%
- Corn plant response rating (crop injury, 0 = no effect, 100 = complete kill) at 500 g/ha (corn; Zea mays, pre-emergence, 312 h, 500 g ai/ha, scale 0 to 100 (0 no effect, 100 complete control), visual, 12 to 14 days): 85%
- pest or weed control at 62 g/ha (large crabgrass; Digitaria sanguinalis, pre-emergence, 312 h, 62 g ai/ha, preemergence, scale 0 to 100, read-out: Plant response rating, Crabgrass, Large): 100%
- pest or weed control at 125 g/ha (large crabgrass; Digitaria sanguinalis, pre-emergence, 312 h, 125 g ai/ha, scale 0 (no effect) to 100 (complete control), visual, 12 to 14 days, read-out: Plant response rating, Crabgrass, Large): 100%
- pest or weed control at 250 g/ha (large crabgrass; Digitaria sanguinalis, pre-emergence, 312 h, 250 g ai/ha, scale 0-100, read-out: Plant response rating, Crabgrass, Large): 100%
- pest or weed control at 500 g/ha (large crabgrass; Digitaria sanguinalis, pre-emergence, 312 h, 500 g ai/ha, scale 0 to 100 (0 no effect, 100 complete control), visual, 12 to 14 days, read-out: Plant response rating, Crabgrass, Large): 100%
- pest or weed control at 62 g/ha (giant foxtail; Setaria faberi, pre-emergence, 312 h, 62 g ai/ha, preemergence, scale 0 to 100, read-out: Plant response rating, Foxtail, Giant): 0%
- pest or weed control at 125 g/ha (giant foxtail; Setaria faberi, pre-emergence, 312 h, 125 g ai/ha, scale 0 (no effect) to 100 (complete control), visual, 12 to 14 days, read-out: Plant response rating, Foxtail, Giant): 5%
- pest or weed control at 250 g/ha (giant foxtail; Setaria faberi, pre-emergence, 312 h, 250 g ai/ha, scale 0-100, read-out: Plant response rating, Foxtail, Giant): 90%
- pest or weed control at 500 g/ha (giant foxtail; Setaria faberi, pre-emergence, 312 h, 500 g ai/ha, scale 0 to 100 (0 no effect, 100 complete control), visual, 12 to 14 days, read-out: Plant response rating, Foxtail, Giant): 90%
- pest or weed control at 62 g/ha (goosegrass; Eleusine indica, pre-emergence, 312 h, 62 g ai/ha, preemergence, scale 0 to 100, read-out: Plant response rating, Goosegrass): 95%
- pest or weed control at 125 g/ha (goosegrass; Eleusine indica, pre-emergence, 312 h, 125 g ai/ha, scale 0 (no effect) to 100 (complete control), visual, 12 to 14 days, read-out: Plant response rating, Goosegrass): 100%
- pest or weed control at 250 g/ha (goosegrass; Eleusine indica, pre-emergence, 312 h, 250 g ai/ha, scale 0-100, read-out: Plant response rating, Goosegrass): 100%
- pest or weed control at 500 g/ha (goosegrass; Eleusine indica, pre-emergence, 312 h, 500 g ai/ha, scale 0 to 100 (0 no effect, 100 complete control), visual, 12 to 14 days, read-out: Plant response rating, Goosegrass): 100%
- pest or weed control at 62 g/ha (kochia; Bassia scoparia, pre-emergence, 62 g ai/ha, preemergence, scale 0 to 100, read-out: Plant response rating, Kochia): 5%
- pest or weed control at 125 g/ha (kochia; Bassia scoparia, pre-emergence, 125 g ai/ha, scale 0 (no effect) to 100 (complete control), visual, 12 to 14 days, read-out: Plant response rating, Kochia): 70%
- pest or weed control at 250 g/ha (kochia; Bassia scoparia, pre-emergence, 250 g ai/ha, scale 0-100, read-out: Plant response rating, Kochia): 100%
- pest or weed control at 500 g/ha (kochia; Bassia scoparia, pre-emergence, 500 g ai/ha, scale 0 to 100 (0 no effect, 100 complete control), visual, 12 to 14 days, read-out: Plant response rating, Kochia): 100%
- pest or weed control at 62 g/ha ([1]; Helianthus annuus, pre-emergence, 62 g ai/ha, preemergence, scale 0 to 100, read-out: Plant response rating, Sunflower): 0%
- pest or weed control at 250 g/ha ([1]; Helianthus annuus, pre-emergence, 250 g ai/ha, scale 0-100, read-out: Plant response rating, Sunflower): 30%
- pest or weed control at 500 g/ha ([1]; Helianthus annuus, pre-emergence, 500 g ai/ha, scale 0 to 100 (0 no effect, 100 complete control), visual, 12 to 14 days, read-out: Plant response rating, Sunflower): 45%

Structure (SMILES): CCn1nc(C(C)(C)C)cc1C(=O)Nc1cc(C#N)ccc1F [Compound 140]
- Plant response rating (0 = no effect, 100 = complete control), Bermudagrass (bermudagrass; 62 g ai/ha, preemergence): 0
- Plant response rating, Bermudagrass (bermudagrass; [2]): 0
- Plant response rating, Bermudagrass (bermudagrass; [3]): 60
- Bermudagrass plant response rating (bermudagrass; [4]): 85
- Plant response rating (0 = no effect, 100 = complete control), Surinam Grass (Surinam grass; 62 g ai/ha, preemergence): 0
- Plant response rating, Surinam Grass (Surinam grass; [2]): 0
- Surinam Grass plant response rating (Surinam grass; [4]): 70
- Plant response rating (0 = no effect, 100 = complete control), Cocklebur (cocklebur; 62 g ai/ha, preemergence): 0
- Plant response rating, Cocklebur (cocklebur; [2]): 0
- Plant response rating, Cocklebur (cocklebur; [3]): 0
- Cocklebur plant response rating (cocklebur; [4]): 0
- Plant response rating (0 = no effect, 100 = complete control), Corn (corn; 62 g ai/ha, preemergence): 0
- Plant response rating, Corn (corn; [2]): 0
- Plant response rating, Corn (corn; [3]): 0
- Corn plant response rating (corn; [4]): 0
- Plant response rating (0 = no effect, 100 = complete control), Crabgrass, Large (large crabgrass; 62 g ai/ha, preemergence): 0
- Plant response rating, Crabgrass, Large (large crabgrass; [2]): 65
- Plant response rating, Crabgrass, Large (large crabgrass; [3]): 75
- Crabgrass, Large plant response rating (large crabgrass; [4]): 100
- Plant response rating (0 = no effect, 100 = complete control), Foxtail, Giant (giant foxtail; 62 g ai/ha, preemergence): 0
- Plant response rating, Foxtail, Giant (giant foxtail; [2]): 25
- Plant response rating, Foxtail, Giant (giant foxtail; [3]): 65
- Foxtail, Giant plant response rating (giant foxtail; [4]): 85
- Plant response rating (0 = no effect, 100 = complete control), Goosegrass (goosegrass; 62 g ai/ha, preemergence): 0
- Plant response rating, Goosegrass (goosegrass; [2]): 0
- Goosegrass plant response rating (goosegrass; [4]): 75
- Plant response rating (0 = no effect, 100 = complete control), Kochia (kochia; 62 g ai/ha, preemergence): 70
- Plant response rating, Kochia (kochia; [2]): 75
- Kochia plant response rating (kochia; [4]): 100
- Plant response rating (0 = no effect, 100 = complete control), Sunflower ([1]; 62 g ai/ha, preemergence): 0
- Plant response rating, Sunflower [1, 2]: 0
- Sunflower plant response rating [1, 4]: 0
